Measured values reported in article PMC9516332 (Frontiers in Oncology, 2022).
Where two headings read alike, the source gives them in different places.

Key:
Experiment in all cases: Kinase panel profiling at 1 µmol/L (MSA or IMAP), percentage inhibition
Assay type in all cases: biochemical
[1] = biological target: T1, panel of 255 wild-type kinases (Homo sapiens, UniProt Q9NRM7); conditions: kinase LATS2; 1 µmol/L single concentration; read-out: %-inhibition at 1 µmol/L, LATS2
T1 sequence (Q9NRM7 1-1088): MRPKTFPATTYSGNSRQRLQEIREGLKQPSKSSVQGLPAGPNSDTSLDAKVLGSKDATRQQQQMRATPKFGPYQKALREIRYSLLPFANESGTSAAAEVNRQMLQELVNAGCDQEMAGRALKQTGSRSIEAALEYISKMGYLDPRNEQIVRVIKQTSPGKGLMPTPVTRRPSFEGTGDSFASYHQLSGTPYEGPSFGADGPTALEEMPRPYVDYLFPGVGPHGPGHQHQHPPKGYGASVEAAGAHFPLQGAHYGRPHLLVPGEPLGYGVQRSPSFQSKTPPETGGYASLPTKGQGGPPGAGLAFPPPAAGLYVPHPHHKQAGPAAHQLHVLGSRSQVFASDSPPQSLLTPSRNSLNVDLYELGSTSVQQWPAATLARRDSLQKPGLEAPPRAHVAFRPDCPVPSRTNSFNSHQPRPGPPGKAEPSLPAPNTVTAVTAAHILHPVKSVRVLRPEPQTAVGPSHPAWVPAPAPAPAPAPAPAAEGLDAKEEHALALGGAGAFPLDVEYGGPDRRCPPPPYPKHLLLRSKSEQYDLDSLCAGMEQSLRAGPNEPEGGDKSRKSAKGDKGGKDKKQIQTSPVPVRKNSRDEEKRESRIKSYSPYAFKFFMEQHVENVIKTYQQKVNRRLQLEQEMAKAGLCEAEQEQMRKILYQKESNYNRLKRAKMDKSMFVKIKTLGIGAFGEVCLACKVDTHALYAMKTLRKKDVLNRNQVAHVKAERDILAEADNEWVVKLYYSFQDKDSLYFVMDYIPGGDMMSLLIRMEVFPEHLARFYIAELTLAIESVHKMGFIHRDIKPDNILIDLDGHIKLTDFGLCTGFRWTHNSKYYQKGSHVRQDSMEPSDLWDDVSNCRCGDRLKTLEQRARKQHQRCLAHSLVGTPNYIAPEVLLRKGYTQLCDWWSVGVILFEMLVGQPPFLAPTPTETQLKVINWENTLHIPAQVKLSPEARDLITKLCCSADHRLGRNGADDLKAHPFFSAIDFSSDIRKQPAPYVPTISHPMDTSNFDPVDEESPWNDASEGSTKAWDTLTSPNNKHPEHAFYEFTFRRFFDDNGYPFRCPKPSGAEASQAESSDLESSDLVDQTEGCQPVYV

[2] = biological target: panel of 255 wild-type kinases (Homo sapiens, UniProt P07333); conditions: kinase FMS; 1 µmol/L single concentration; read-out: %-inhibition at 1 µmol/L, FMS
[3] = biological target: panel of 255 wild-type kinases (Homo sapiens, UniProt Q8IY84); conditions: NIM1K; 1 µmol/L single concentration; read-out: %-inhibition, NIM1K
[4] = biological target: T2, panel of 255 wild-type kinases (Homo sapiens, UniProt Q96BR1); conditions: kinase SGK3; 1 µmol/L single concentration; read-out: %-inhibition at 1 µmol/L, SGK3
T2 sequence (Q96BR1 1-496): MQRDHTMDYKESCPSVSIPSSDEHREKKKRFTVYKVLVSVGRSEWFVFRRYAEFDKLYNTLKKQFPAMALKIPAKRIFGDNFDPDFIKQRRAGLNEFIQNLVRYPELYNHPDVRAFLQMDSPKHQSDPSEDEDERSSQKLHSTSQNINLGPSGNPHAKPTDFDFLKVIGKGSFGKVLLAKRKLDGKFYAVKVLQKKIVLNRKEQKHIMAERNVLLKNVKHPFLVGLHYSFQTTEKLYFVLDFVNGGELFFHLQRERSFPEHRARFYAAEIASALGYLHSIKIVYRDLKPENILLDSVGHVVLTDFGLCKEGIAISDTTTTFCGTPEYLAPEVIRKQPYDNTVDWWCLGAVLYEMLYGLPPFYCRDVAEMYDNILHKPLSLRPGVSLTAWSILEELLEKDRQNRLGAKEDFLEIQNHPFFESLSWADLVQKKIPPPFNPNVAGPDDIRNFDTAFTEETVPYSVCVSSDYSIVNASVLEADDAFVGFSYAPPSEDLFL

[5] = biological target: panel of 255 wild-type kinases (Homo sapiens, UniProt Q13882); conditions: BRK kinase assay; 1 µmol/L single concentration; read-out: %-inhibition BRK
[6] = biological target: panel of 255 wild-type kinases (Homo sapiens, UniProt P09619); conditions: read-out: %-inhibition at 1 µmol/L, PDGFRβ
[7] = biological target: panel of 255 wild-type kinases (Homo sapiens, UniProt Q9Y6M4); conditions: kinase CK1γ3; 1 µmol/L single concentration; read-out: %-inhibition at 1 µmol/L, CK1γ3
[8] = biological target: panel of 255 wild-type kinases (Homo sapiens, UniProt P08922); conditions: kinase ROS; 1 µmol/L single concentration; read-out: %-inhibition at 1 µmol/L, ROS
[9] = biological target: panel of 255 wild-type kinases (Homo sapiens, UniProt Q9P286); conditions: PAK5; 1 µmol/L single concentration; read-out: %-inhibition, PAK5
[10] = biological target: T3, panel of 255 wild-type kinases (Homo sapiens, UniProt P15735); conditions: kinase PHKG2; 1 µmol/L single concentration; read-out: %-inhibition at 1 µmol/L, PHKG2
T3 sequence (P15735 1-406): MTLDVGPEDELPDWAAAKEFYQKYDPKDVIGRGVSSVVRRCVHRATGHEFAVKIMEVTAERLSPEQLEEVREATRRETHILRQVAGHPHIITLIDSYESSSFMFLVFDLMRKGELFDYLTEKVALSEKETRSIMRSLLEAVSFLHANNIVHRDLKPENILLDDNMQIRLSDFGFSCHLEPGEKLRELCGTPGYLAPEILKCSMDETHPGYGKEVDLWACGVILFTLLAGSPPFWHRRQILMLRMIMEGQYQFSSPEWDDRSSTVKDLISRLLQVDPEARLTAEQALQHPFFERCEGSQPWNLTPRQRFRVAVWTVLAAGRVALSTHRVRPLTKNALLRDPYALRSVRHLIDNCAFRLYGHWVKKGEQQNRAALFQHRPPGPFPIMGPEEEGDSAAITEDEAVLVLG

[11] = biological target: panel of 255 wild-type kinases (Homo sapiens, UniProt P48730); conditions: kinase CK1δ; 1 µmol/L single concentration; read-out: %-inhibition at 1 µmol/L, CK1δ
[12] = kinase PDGFRβ, 1 µmol/L single concentration

| Structure (SMILES) | inhibition at 1 µM [1] | inhibition at 1 µM [2] | inhibition at 1 µM [3] | inhibition at 1 µM [4] | inhibition at 1 µM [5] | inhibition at 1 µM [6, 12] | inhibition at 1 µM [7] | inhibition at 1 µM [8] | inhibition at 1 µM [9] | inhibition at 1 µM [10] | inhibition at 1 µM [11] | inhibition at 1 µM [6] |
| --- | --- | --- | --- | --- | --- | --- | --- | --- | --- | --- | --- | --- |
| CCN1C(=O)N(c2c(F)c(OC)cc(OC)c2F)Cc2cnc3[nH]c(CN4CCOCC4)cc3c21 [pemigatinib] | -3% | 93% | -1.5% | -7% | 11% | 73% | -1.18% | 3.74% | 2.26% | 8% | -4.55% |  |
| FC(F)(F)c1ccc(CNc2ccc(Cc3c[nH]c4ncc(Cl)cc34)cn2)cn1 [pexidartinib] | 4% | 95% | -1.06% | -0.803% | 15% | 64% | -0.557% | 37% | 7% | 4.25% | -3.46% |  |
| CO[C@]1(C(=O)N[C@@H](C)c2ccc(-n3cc(F)cn3)nc2)CC[C@H](c2nc(C)cc(Nc3cc(C)[nH]n3)n2)CC1 [pralsetinib] | 7.44% | 94% | 0.843% | -0.536% | 49% | 99% | 0.449% | 94% | 69% | 2.24% | 0.94% |  |
| CCn1c(=O)c(-c2cc(NC(=O)Nc3ccccc3)c(F)cc2Br)cc2cnc(NC)cc21 [ripretinib] | -0.411% | 71% | 0.056% | -9% | 36% |  | -8% | 3.79% | 1.9% | 1.5% | -8% | 106% |
| COc1ccc(CN2C3CC2CN(c2ccc(-c4cc(OCC(C)(C)O)cn5ncc(C#N)c45)cn2)C3)cn1 [selpercatinib] | -5.4% | 79% | -2% | -0.72% | 19% | 94% | 12% | 64% | 9% | 6.5% | -1.7% |  |
| Cn1cnc2c(F)c(Nc3ccc(Br)cc3Cl)c(C(=O)NOCCO)cc21 [selumetinib] | -3.38% | 8.51% | -0.385% | -4% | 6% | 20% | -1% | 15% | 0.473% | 3.3% | -1.44% |  |
| Cc1cc(Nc2ncnc3ccc(NC4=NC(C)(C)CO4)cc23)ccc1Oc1ccn2ncnc2c1 [tucatinib] | 0.168% | 12% | 1.49% | -4% | 8% | 31% | 11% | 21% | 3.53% | -0.185% | -2.17% |  |
| C=CC(=O)N1CCC([C@@H]2CCNc3c(C(N)=O)c(-c4ccc(Oc5ccccc5)cc4)nn32)CC1 [zanubrutinib] | -0.0723% | -7% | -1.66% | -3.7% | 99% | 3.39% | -0.464% | 1.9% | 0.606% | 4.22% | -4% |  |
